Molecules are shown by their SMILES. Calls of active or inactive are those of the source. The calls are words filed in the database; no cut-off is given here. A value given as a limit tells only on which side of the number the result lay.

As usually defined, the IC50 is the midpoint of a concentration-inhibition curve.

Target in the first experiment: not listed separately
In words: Inhibition of alpha glucosidase (unknown origin) using p-nitrophenyl alpha-D-glucopyranoside as substrate pretreated for 15 mins followed by substrate addition after 30 mins by spectrophotometric method. Also noted: species or system Homo sapiens.
For the compound `Nc1ccc(C(=O)N/N=C/c2coc3ccccc3c2=O)cc1`, the IC50 worked out at 96.9 µM.
For `NS(=O)(=O)c1ccc(N/N=C/c2coc3ccccc3c2=O)cc1`, the IC50 amounted to 20.1 µM.
Turning to `NS(=O)(=O)c1ccc(N/N=C/c2coc3cc(O)ccc3c2=O)cc1`, the half-inhibitory concentration (IC50) came to 25.2 µM.
Same read-out and setting: then `O=C(N/N=C/c1coc2ccccc2c1=O)c1ccc(O)cc1`, with 39.8 µM; and `O=C(N/N=C/c1coc2cc(O)ccc2c1=O)c1cccs1`, with 60.8 µM; and `CCOC(=O)N/N=C/c1coc2ccccc2c1=O`, with over 100 µM.
On to `O=c1c(/C=N/Nc2ccccc2)coc2ccccc12`, for which the IC50 turned out to be 26.7 µM.
In the case of `O=c1c(/C=N/Nc2cccc(Cl)c2)coc2ccccc12`, the half-maximal inhibitory concentration (IC50) is over 100 µM.
Consider `O=C(N/N=C/c1coc2cc(O)ccc2c1=O)c1ccccc1`, for which the IC50 was found to be 45.7 µM.
`O=c1c(/C=N/Nc2cccc(Cl)c2)coc2cc(O)ccc12`: the IC50 came out at 96.7 µM.
On to `O=C(N/N=C/c1coc2cc(O)ccc2c1=O)c1ccc(O)cc1`, for which the IC50 worked out at 86.3 µM.
As for `CCOC(=O)N/N=C/c1coc2cc(O)ccc2c1=O`, the IC50 worked out at 95.4 µM.
Take `Nc1ccc(C(=O)N/N=C/c2coc3cc(O)ccc3c2=O)cc1`: the IC50 is 30.8 µM.
Turning to `O=C(N/N=C/c1coc2ccccc2c1=O)c1ccccc1`, the IC50 is over 100 µM.
Regarding `Cc1ccc(S(=O)(=O)N/N=C/c2coc3cc(O)ccc3c2=O)cc1`, the IC50 is over 100 µM.
On to `O=C(N/N=C/c1coc2ccccc2c1=O)c1cccs1`, for which the IC50 is over 100 µM.

The species named for another experiment is Homo sapiens. In words: Non-competitive inhibition of alpha glucosidase (unknown origin) at 10 to 30 uM using p-nitrophenyl alpha-D-glucopyranoside as substrate by line-weaver burk plot method.
As to `NS(=O)(=O)c1ccc(N/N=C/c2coc3ccccc3c2=O)cc1`, the inhibition result is “Active”.
